# Results from patent US20260138961A1, “MODULATORS OF MITOCHONDRIAL DNA REPLICATION” (Pretzel Therapeutics, Inc., priority 2022, published 2026).
# Target: T1, POLγA:G848S (Homo sapiens, UniProt P54098, G848S)
# T1 sequence (P54098 1-1239 G848S): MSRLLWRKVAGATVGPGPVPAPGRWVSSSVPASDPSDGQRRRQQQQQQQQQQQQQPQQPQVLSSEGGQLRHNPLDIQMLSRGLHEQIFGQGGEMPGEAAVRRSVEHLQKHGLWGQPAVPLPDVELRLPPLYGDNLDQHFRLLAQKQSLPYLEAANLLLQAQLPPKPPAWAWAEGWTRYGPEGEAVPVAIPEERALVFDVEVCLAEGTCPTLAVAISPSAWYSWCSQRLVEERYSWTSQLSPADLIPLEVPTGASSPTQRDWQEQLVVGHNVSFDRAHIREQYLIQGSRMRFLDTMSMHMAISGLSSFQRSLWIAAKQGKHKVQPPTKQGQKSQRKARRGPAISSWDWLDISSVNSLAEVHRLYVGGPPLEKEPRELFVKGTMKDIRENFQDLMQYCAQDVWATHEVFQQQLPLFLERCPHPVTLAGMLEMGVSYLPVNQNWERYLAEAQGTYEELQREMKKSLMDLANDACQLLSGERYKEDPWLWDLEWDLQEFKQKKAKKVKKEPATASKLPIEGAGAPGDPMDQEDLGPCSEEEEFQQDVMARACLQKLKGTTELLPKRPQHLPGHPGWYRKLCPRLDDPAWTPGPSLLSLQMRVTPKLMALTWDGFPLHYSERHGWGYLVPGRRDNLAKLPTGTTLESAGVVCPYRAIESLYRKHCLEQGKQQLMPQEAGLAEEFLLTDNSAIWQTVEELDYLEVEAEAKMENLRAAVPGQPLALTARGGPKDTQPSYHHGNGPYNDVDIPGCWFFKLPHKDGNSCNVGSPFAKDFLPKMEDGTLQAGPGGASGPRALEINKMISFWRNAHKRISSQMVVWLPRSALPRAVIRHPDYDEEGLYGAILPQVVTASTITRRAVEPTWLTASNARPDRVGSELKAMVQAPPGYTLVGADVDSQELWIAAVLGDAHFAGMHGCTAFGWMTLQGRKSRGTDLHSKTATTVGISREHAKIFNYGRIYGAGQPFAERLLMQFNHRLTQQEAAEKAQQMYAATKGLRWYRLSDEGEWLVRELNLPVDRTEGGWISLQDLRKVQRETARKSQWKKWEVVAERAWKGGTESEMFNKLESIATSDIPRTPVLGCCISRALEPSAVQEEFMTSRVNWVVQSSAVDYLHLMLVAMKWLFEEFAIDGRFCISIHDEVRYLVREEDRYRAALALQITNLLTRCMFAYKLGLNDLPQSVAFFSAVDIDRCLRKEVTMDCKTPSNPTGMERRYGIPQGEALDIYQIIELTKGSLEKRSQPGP
# T1 sequence (Q9UHN1 1-485 partner): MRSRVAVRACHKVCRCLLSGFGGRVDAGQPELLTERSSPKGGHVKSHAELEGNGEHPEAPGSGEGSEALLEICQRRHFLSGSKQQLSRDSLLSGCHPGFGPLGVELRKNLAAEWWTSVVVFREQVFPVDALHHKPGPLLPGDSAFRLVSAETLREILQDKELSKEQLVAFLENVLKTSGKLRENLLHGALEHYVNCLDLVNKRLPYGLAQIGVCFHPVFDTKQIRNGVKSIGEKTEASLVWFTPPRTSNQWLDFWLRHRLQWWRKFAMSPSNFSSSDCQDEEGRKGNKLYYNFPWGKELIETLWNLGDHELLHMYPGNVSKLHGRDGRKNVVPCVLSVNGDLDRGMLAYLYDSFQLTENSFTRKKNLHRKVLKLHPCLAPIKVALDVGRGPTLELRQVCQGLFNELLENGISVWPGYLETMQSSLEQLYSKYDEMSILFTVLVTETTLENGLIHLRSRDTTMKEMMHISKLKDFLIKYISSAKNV
# Assay: DNA polymerization assay, POLγA:G848S mutant
# Format: biochemical
# Details: stimulation of polymerase activity, primed M13mp18 ssDNA, 37° C. 2 hours; read-out: G848S AC50
# Procedure: DNA Polymerization Assay to Monitor Effects on Human Wildtype POLγ and Four Disease-Causing Mutant Variants of Human POLγ.
# The ability of small molecules to stimulate the polymerase activity of POLγ was analyzed in a quantitative fluorescence SYBR Green I assay with fluorescence intensity (FI) readout.
# In the presence of dNTPs, wild type human POLγ and mutant derivatives thereof were incubated with single-stranded, circular M13mp18 ssDNA hybridized to a short DNA oligonucleotide that functions as a primer for initiation of DNA synthesis. POLγ and mutant derivatives thereof will extend the primer and use the M13mp18 molecule as a template to synthesize long stretches of double-stranded DNA. SYBR Green I, which is a double-stranded DNA-binding dye, was used to quantify formation of double-stranded DNA in the reaction. When bound to double-stranded DNA, SYBR Green I fluorescence increases by up to 100-fold.
# The assay was performed in the 384-well plate format. Upon addition of compounds, changes in double-stranded DNA synthesis activity can be monitored by following effects on fluorescent intensity.
# The reactions also contained the accessory POLγB subunit, and the human mitochondrial single-stranded DNA binding protein (mtSSB).
# The DNA template mixture used in the assay contained 0.5 nM primed M13 mp18 ssDNA, 400 nM mtSSB, 0.1 mM Tris-HCl (pH 8.0), 0.1 mM dNTP, 10 mM MgCl2, 0.1 mg/mL BSA, 1 mM TCEP solution, and 0.02% Triton X-100. The DNA template mixture for the wild type protein contained either 100 μM dNTP, 1 μM dNTP, or 0.1 μM dNTP, designated in Table 2 as 100 μM, 1 μM, and 0.1 μM, respectfully.
# Microplates with compounds (0.1 μL in each well) to be tested in the assay were prepared from 10 mM compound stocks in 100% DMSO, and equal amounts of DMSO without any compound were added to positive and negative control wells.
# The protein mixture was dispensed (5 μL into each well) into compound plates and incubated at 37° C. for 15 minutes. After incubation, 5 μL of the DNA template mixture was dispensed into each well. The plates were then incubated at 37° C. for 2 hours.
# During incubation, a combined stop buffer and detection reagent solution was prepared. The buffer contained 25 mM EDTA (pH 8.0), 0.02% Triton X-100, and SYBR Green I [Invitrogen] diluted 10,000× (for fluorescent readout). EDTA will stop the enzymatic reaction by chelating magnesium ions.
row,AC50,SMILES
1,0.4 µM,"Cc1cnc(-c2ccc(Cl)c(NS(=O)(=O)c3cc(C)c(Cl)cc3C)c2)s1 [Example 102, 4-chloro-N-(2-chloro-5-(5-methylthiazol-2-yl)phenyl)-2,5-dimethylbenzenesulfonamide]"
2,9 µM,"Cc1cnc(-c2cc(NS(=O)(=O)c3cc(C)c(Cl)cc3C)ccc2C)s1 [Example 103, 4-chloro-2,5-dimethyl-N-(4-methyl-3-(5-methylthiazol-2-yl)phenyl)benzenesulfonamide]"
3,47 µM,"Cc1cc(S(=O)(=O)N[C@@H]2CCCN(C(=O)[C@@H]3CCCN3C)C2)c(C)cc1Cl [Example 104, 4-chloro-2,5-dimethyl-N-((R)-1-(methyl-L-prolyl)piperidin-3-yl)benzenesulfonamide]"
4,9 µM,"Cc1cc(S(=O)(=O)Nc2cccc(C(=O)N3CCCC4(CC4)C3)c2)c(C)cc1Cl [Example 105, N-(3-(5-azaspiro[2.5]octane-5-carbonyl)phenyl)-4-chloro-2,5-dimethylbenzenesulfonamide]"
5,> 100 µM,"Cc1cc(S(=O)(=O)Nc2cccc(C(=O)N3CCCOC(C)(C)C3)c2)c(C)cc1Cl [Example 106, 4-chloro-N-(3-(2,2-dimethyl-1,4-oxazepane-4-carbonyl)phenyl)-2,5-dimethylbenzenesulfonamide]"
6,7 µM,"Cc1cc(S(=O)(=O)Nc2cccc(C(=O)N3CCc4cn[nH]c4C3)c2)c(C)cc1Cl [Example 107, 4-chloro-2,5-dimethyl-N-(3-(4,5,6,7-tetrahydro-1H-pyrazolo[3,4-c]pyridine-6-carbonyl)phenyl)benzenesulfonamide]"
7,> 100 µM,"Cc1cc(S(=O)(=O)Nc2cccc(C(=O)N3C[C@H](C)[C@@H](N)C3)c2)c(C)cc1Cl [Example 108, N-(3-((3R,4S)-3-amino-4-methylpyrrolidine-1-carbonyl)phenyl)-4-chloro-2,5-dimethylbenzenesulfonamide]"
8,> 100 µM,"Cc1cc(S(=O)(=O)Nc2cccc(C(=O)N(C)c3ccccn3)c2)c(C)cc1Cl [Example 109, 3-((4-chloro-2,5-dimethylphenyl)sulfonamido)-N-methyl-N-(pyridin-2-yl)benzamide]"
9,> 100 µM,"Cc1cc(NS(=O)(=O)c2cc(C)c(Cl)cc2C)cc(-c2ncc(C)s2)c1 [Example 110, 4-chloro-2,5-dimethyl-N-(3-methyl-5-(5-methylthiazol-2-yl)phenyl)benzenesulfonamide]"
10,> 100 µM,"Cc1cnc(-c2cc(NS(=O)(=O)c3cc(C)c(Cl)cc3C)ccc2Cl)s1 [Example 111, 4-chloro-N-(4-chloro-3-(5-methylthiazol-2-yl)phenyl)-2,5-dimethylbenzenesulfonamide]"
11,40 µM,"Cc1cc(S(=O)(=O)Nc2cccc(C(=O)N(C(C)C)C3COC3)c2)c(C)cc1Cl [Example 112, 3-((4-chloro-2,5-dimethylphenyl)sulfonamido)-N-isopropyl-N-(oxetan-3-yl)benzamide]"
12,11 µM,"Cc1cc(S(=O)(=O)Nc2cccc(C(=O)N(CC(N)=O)C3CCCC3)c2)c(C)cc1Cl [Example 113, N-(2-amino-2-oxoethyl)-3-((4-chloro-2,5-dimethylphenyl)sulfonamido)-N-cyclopentylbenzamide]"
13,50 µM,"Cc1cc(S(=O)(=O)Nc2cccc(C(=O)N3CCc4ncnc(C)c4C3)c2)c(C)cc1Cl [Example 114, 4-chloro-2,5-dimethyl-N-(3-(4-methyl-5,6,7,8-tetrahydropyrido [4,3-d]pyrimidine-6-carbonyl)phenyl)benzenesulfonamide]"
14,> 100 µM,"Cc1cc(S(=O)(=O)Nc2cccc(C(=O)N3C[C@@H](F)C[C@H](F)C3)c2)c(C)cc1Cl [Example 115, 4-chloro-N-(3-((3S,5S)-3,5-difluoropiperidine-1-carbonyl)phenyl)-2,5-dimethylbenzenesulfonamide]"
15,9 µM,"Cc1cc(Cl)ccc1S(=O)(=O)Nc1cccc(C(=O)N2CCC[C@H]2C)c1 [Example 116, (R)-4-chloro-2-methyl-N-(3-(2-methylpyrrolidine-1-carbonyl)phenyl)benzenesulfonamide]"
16,> 100 µM,"Cc1cc(S(=O)(=O)Nc2cccc(C(=O)N3CCC[C@H]3C)c2)ccc1Cl [Example 117, (R)-4-chloro-3-methyl-N-(3-(2-methylpyrrolidine-1-carbonyl)phenyl)benzenesulfonamide]"
17,> 100 µM,"C[C@@H]1CCCN1C(=O)c1cccc(NS(=O)(=O)c2ccc(C(F)(F)F)cc2)c1 [Example 118, (R)-N-(3-(2-methylpyrrolidine-1-carbonyl)phenyl)-4-(trifluoromethyl)benzenesulfonamide]"
18,2 µM,"Cc1cc(S(=O)(=O)Nc2cccc(C(=O)N3CCCC3)c2)c(C)cc1Cl [Example 119, 4-chloro-2,5-dimethyl-N-(3-(pyrrolidine-1-carbonyl)phenyl) benzenesulfonamide]"
19,> 100 µM,"O=S(=O)(Nc1csc(-c2ccccc2)n1)c1ccc(Cl)cc1 [Example 120, 4-chloro-N-(2-phenylthiazol-4-yl)benzenesulfonamide]"
20,> 100 µM,"O=S(=O)(Nc1csc(-c2ccccc2)n1)c1cccnc1 [Example 121, N-(2-phenylthiazol-4-yl)pyridine-3-sulfonamide]"
21,> 100 µM,"O=S(=O)(Nc1csc(-c2ccccc2)n1)c1ccc(F)c(F)c1 [Example 122, 3,4-difluoro-N-(2-phenylthiazol-4-yl)benzenesulfonamide]"
22,2 µM,"Cc1ccc(S(=O)(=O)Nc2csc(-c3ccccc3)n2)c(C)c1 [Example 123, 2,4-dimethyl-N-(2-phenylthiazol-4-yl)benzenesulfonamide]"
23,2 µM,"Cc1cc(F)ccc1S(=O)(=O)Nc1csc(-c2ccccc2)n1 [Example 124, 4-fluoro-2-methyl-N-(2-phenylthiazol-4-yl)benzenesulfonamide]"
24,7 µM,"O=S(=O)(Nc1csc(-c2ccccc2)n1)c1ccccc1Cl [Example 125, 2-chloro-N-(2-phenylthiazol-4-yl)benzenesulfonamide]"
